# Reference: patent publication US7649020B2, “Modafinil polymorphic forms” (Cephalon France, priority 2002, dated 2010)
# Read-outs that look alike come from different tables or passages of the source.
# Legend:
# [1] = Comparative bioavailability study in dogs, plasma levels of modafinil after a single oral dose; type: in vivo, dog
# Method: A comparative bioavailability study was carried out in dogs to determine the pharmacokinetic profile of the new polymorphs form IV and form V of modafinil. The study was aimed to compare plasma levels of polymorphs form IV and form V versus the reference form I. Six male beagle dogs were randomly assigned to three groups according to a (3×3) Latin-square design. Each group was administered a single oral 30 mg/kg body weight dose of either form IV or form V or the reference form I and two successive administrations were separated by a one-week wash-out period according to the protocol design reported table 1.
# Dogs were fasted overnight prior dosing and food was returned to them four hours after dosing. Blood samples were collected after each dose by venepuncture at predose (within one hour of dosing) and at 0.5, 1, 1.5, 2, 2.5, 3, 4, 5.5, 7, 9 and 24 hours post-dose. Blood samples were collected on heparinized test tubes and immediately centrifuged at 3,000 rpm. Then plasma was drawn off and stored frozen (−20° C.) until analyzed. Plasma concentrations of modafinil were determined by validated high-pressure liquid chromatography according to the method of Moachon G. et al. (J. Chromatog. B 1994; 654: 91). Pharmacokinetic parameters were determined using noncompartimental analysis.
# [2] = Relative stability of polymorphic forms; type: physicochemical; settings: 20° C. / room temperature
# From the text: Modafinil form I was identified as the thermodynamic form (at room temperature). Form I is obtained via crystallization, preferably under atmospheric pressure, at room temperature.
# [3] = Table 2, male beagle dogs, single oral 30 mg/kg, mean ± SEM, 30 mg/kg
# [4] = Table 3, dogs, single oral 30 mg/kg, mean ± SEM, 30 mg/kg
smiles,measurement,setting,value
"NC(=O)C[S+]([O-])C(c1ccccc1)c1ccccc1 (racemic) [Form I, 2-(benzhydrylsulfinyl) acetamide, reference compound]",concentration at 4 h,"[1]; male, beagle, dog, plasma, po, 30 mg/kg, Table 2, male beagle dogs, single oral 30 mg/kg, mean ± SEM, read-out: C4 h (plasma level measured at 4 hours post-dose)",15400 ± 2560 ng/mL
same,Cmax,"[1]; male, beagle, dog, plasma, po, 30 mg/kg, Table 2, male beagle dogs, single oral 30 mg/kg, mean ± SEM, read-out: Cmax (maximum plasma level of modafinil)",18600 ± 2300 ng/mL
same,AUC(0-t),"[1]; male, beagle, dog, plasma, po, 30 mg/kg, Table 2, male beagle dogs, single oral 30 mg/kg, trapezoidal rule 0 to 24 hours post-dose, mean ± SEM, read-out: AUC0-24 h",165 ± 23.7 µg·h/mL
same,concentration at 1 h,"[1]; male, beagle, dog, plasma, po, 30 mg/kg, Table 3, dogs, single oral 30 mg/kg, mean ± SEM, read-out: C1 h (plasma level at 1 hour post-dose)",8810 ± 2450 ng/mL
same,concentration at 1.5 h,"[1]; male, beagle, dog, plasma, po, 30 mg/kg, Table 3, dogs, single oral 30 mg/kg, mean ± SEM, read-out: C1.5 h (plasma level at 1.5 hours post-dose)",12700 ± 2390 ng/mL
same,concentration at 2 h,"[1]; male, beagle, dog, plasma, po, 30 mg/kg, Table 3, dogs, single oral 30 mg/kg, mean ± SEM, read-out: C2 h (plasma level at 2 hours post-dose)",14200 ± 2230 ng/mL
same,concentration at 2.5 h,"[1]; male, beagle, dog, plasma, po, 30 mg/kg, Table 3, dogs, single oral 30 mg/kg, mean ± SEM, read-out: C2.5 h (plasma level at 2.5 hours post-dose)",14200 ± 1950 ng/mL
same,Cmax,"[1]; male, beagle, dog, plasma, po, 30 mg/kg, Table 3, dogs, single oral 30 mg/kg, mean ± SEM, read-out: Cmax",18600 ± 2300 ng/mL
same,Tmax,"[1]; male, beagle, dog, plasma, po, 30 mg/kg, Table 3, dogs, single oral 30 mg/kg, mean, read-out: Tmax (time to reach peak plasma level of modafinil)",3 h
same,MRT,"[1]; male, beagle, dog, plasma, po, 30 mg/kg, Table 3, male beagle dogs, single oral 30 mg/kg, mean ± SEM, read-out: MRT (mean residence time)",6.91 ± 0.53 h
same,stability of the polymorphic form,[2],most stable form
"NC(=O)C[S+]([O-])C(c1ccccc1)c1ccccc1 (racemic) [Form IV, 2-(benzhydrylsulfinyl) acetamide]",C4 h (plasma level measured at 4 hours post-dose),[1]; [3],21230 ± 1880 ng/mL
same,Cmax (maximum plasma level of modafinil),[1]; [3],24980 ± 1120 ng/mL
same,AUC0-24 h,"[1]; Table 2, male beagle dogs, single oral 30 mg/kg, trapezoidal rule 0 to 24 hours post-dose, mean ± SEM, 30 mg/kg",200.69 ± 18.09 µg·h/mL
same,systemic exposure (Cmax and AUC0-24h) compared with form I,"[1]; dogs, equivalent dose 30 mg/kg by oral route",substantially higher
"NC(=O)C[S+]([O-])C(c1ccccc1)c1ccccc1 (racemic) [Form V, 2-(benzhydrylsulfinyl) acetamide]",C1 h (plasma level at 1 hour post-dose),[1]; [4],12410 ± 2070 ng/mL
same,C1.5 h (plasma level at 1.5 hours post-dose),[1]; [4],15.31 ± 2.06 µg/mL
same,C2 h (plasma level at 2 hours post-dose),[1]; [4],16560 ± 2480 ng/mL
same,C2.5 h (plasma level at 2.5 hours post-dose),[1]; [4],16.37 ± 2.38 µg/mL
same,Cmax,[1]; [4],18720 ± 2090 ng/mL
same,Tmax (time to reach peak plasma level of modafinil),"[1]; Table 3, dogs, single oral 30 mg/kg, mean, 30 mg/kg",1.67 h
same,MRT (mean residence time),"[1]; Table 3, male beagle dogs, single oral 30 mg/kg, mean ± SEM, 30 mg/kg",6.11 ± 0.36 h
same,reduction in time needed to reach the concentration Cmax versus reference form I,"[1]; dogs, equivalent oral dose 30 mg/kg",~50%
same,mean Tmax value relative to that of reference polymorph I,"[1]; dogs, oral 30 mg/kg, data of Table 3",about 50%
"NC(=O)C[S+]([O-])C(c1ccccc1)c1ccccc1 (stereo not shown) [modafinil form II, 2-(benzhydrylsulfinyl) acetamide]",stability of the polymorphic form,[2],unstable
